Paper PMC10394516, “The pharmacokinetic profile of brensocatib and its effect on pharmacodynamic biomarkers including NE, PR3, and CatG in various rodent species” (Frontiers in Pharmacology, 2023)

Experiments:
NE = assay: Bone marrow NE activity after repeated dosing, C57BL/6 mice; type: in vivo; settings: 7 days
Method: (§1) Briefly, animals were weighed and randomized into different treatment groups. In total, three different dosing levels of brensocatib were tested in each species and strain; each QD dosing level was equivalent to 1.5-times the matching daily BID dose. For BID dosing, the second daily dose was administered 8-h post the morning dose. C57BL/6 mice were dosed either BID or QD for 7 consecutive days at 0/0, 0.5/0.75, 2/3, and 20/30 mg/kg/day (BID/QD). BALB/c mice were dosed for 7 consecutive days at 0/0, 0.2/0.3, 2/3, and 20/30 mg/kg/day (BID/QD). SD rats were dosed for 9 consecutive days at 0/0, 0.2/0.3, 2/3, and 20/30 mg/kg/day (BID/QD). Wistar rats were dosed for 7 consecutive days at 0/0, 0.2/0.3, 2/3, and 20/30 mg/kg/day (BID/QD).
(§2) At the completion of the study, animals were sacrificed 16–24 h post their final dose. The hind limb bones (femurs and tibias) were collected at necropsy for bone marrow analysis of NSP activities by kinetic enzymatic assays ([Basso et al., 2022]). See section Quantification of Bone Marrow NSP Activities for details.
(§3) For the mice, each animal had the femurs and tibias of both hind limbs harvested. For the rat, the femur and tibia from a single hind limb per animal was harvested. Bones were kept on wet ice until processing for bone marrow collection. In brief, bone cutters were used to cut the epiphysis (knobby ends) off the long bones to expose the bone marrow filled cavity. Each bone cavity was then flushed with 5 mL/bone (mouse) or 10 mL/bone (rat) of ice-cold RPMI media through a […] and collected in a 50-mL conical tube. Cells were spun down at 2,500 × g at 4°C for 5 min and the supernatant was aspirated. After which, bone marrow cells were lysed with 1X red blood cell (RBC) lysis buffer (Abcam, ab204733) to eliminate contaminating RBCs and washed with PBS to remove any residual RBC lysis buffer. The resulting white blood cells (WBC) were subsequently lysed with 1% (v/v) Triton X-100 in PBS. Lysates were added to 96-well plates and stored at −80°C until NSP analyses.
(§4) Bone marrow lysates prepared as described above were diluted and plated onto 96-well assay plates to quantify NSP activities as described previously ([Basso et al., 2022]). Briefly, peptide substrates for NE (N-Methoxysuccinyl-Ala-Ala-Pro-Val-7-amido-4-methylcoumarin; Sigma; St. Louis, MO; Excitation/Emission at 350/450 nm), PR3 ((7-Methoxycoumarin-4-yl)acetyl-lysyl-(picolinoyl)-Tyr-Asp-Ala-Lys-Gly-Asp-N-3-(2-4-dinitrophenyl)-2-3-diaminopropyonyl-NH2); GenScript; Piscataway, NJ; Excitation/Emission at 340/430 nm), and CatG (N-Succinyl-Ala-Ala-Pro-Phe p nitroanilide; Sigma; Absorbance at 405 nm) were added at a final assay concentration of 100 μM, 40 μM, and 200 μM, respectively, and either fluorescence or absorbance was quantified using a Synergy microplate reader (BioTek; Winooski, VT). The specific NSP activity in each sample was calculated as the total activity minus the activity in the presence of a specific NSP inhibitor (if used), including elastase inhibitor (Abcam) for NE, sivelestat (Abcam) for PR3, and cathepsin G inhibitor I (Cayman Chemical; Ann Arbor, MI) for CatG. NSP concentrations were interpolated based on their activities relative to the standard curves created using active human NE protein (Sigma), active human PR3 protein (Sigma), and active human CatG protein (Sigma), respectively. Due to unavailability of commercial mouse and/or rat NE, PR3, and CatG proteins, the corresponding human proteins were used instead since their catalytic ability is considered to be conserved across species. A portion of each cell lysate sample was retained for protein quantification using a Pierce™ BCA Protein Assay Kit (Thermo Fisher). The NSP activities were normalized for the cell lysate protein concentrations.
(§5) The Pierce™ BCA Protein Assay Kit was used to measure the total protein of the samples after lysis to allow for subsequent normalization. […]

CatG [1] = assay: Bone marrow CatG activity after repeated dosing, Wistar rats; type: in vivo; settings: for Reduction of CatG activity vs vehicle / Change From Vehicle Control (%) CatG: 7 days
Method: as §1, §2, §3, §4, §5

PR3 = assay: PD onset study, bone marrow PR3 activity, C57BL/6 mice; type: in vivo; settings: for Percent change from vehicle PR3: bone marrow, 5 mg/kg BID oral
Method: (§6) A 14-day PD onset study was performed in female C57BL/6 mice dosed BID. Mice were dosed by oral gavage either with vehicle (0 mg/kg) or 5 mg/kg brensocatib (BID; 10 mg/kg/day) for 1, 4, 7, 10, or 14 consecutive days. Plasma was collected from animals during the first 24 h of dosing at 1, 2, 8, 9, 10, and 24 h post the initial dose. Note the 8- and 24-h plasma samples were prior to the afternoon dose and the second day dose (if applicable), respectively. Plasma was used for PK analysis via LC-MS/MS. On prescribed days, animals were sacrificed 16 h post final dose, and the hind bones (femurs and tibias) were collected at necropsy for bone marrow analysis of NSP activities by kinetic enzymatic assays.
as §3, §4
(§7) The Pierce™ BCA Protein Assay Kit was used to measure the total protein of the samples after lysis to allow for subsequent normalization. The manufacturer’s instructions for use were followed when performing this assay on a portion of the sample lysates which were diluted in PBS, the same diluent as used for preparation of the standard. Plates were read on the Biotek Synergy plate reader with Gen5 software.

CatG [2] = assay: PD onset study, bone marrow CatG activity, C57BL/6 mice; type: in vivo; settings: for Percent change from vehicle CatG: bone marrow, 5 mg/kg BID oral
Method: as §6, §3, §4, §7

CatG [3] = system: CatG; design: method as in Cipolla et al., 2023; settings: Phase 2 trial in NCFBE (WILLOW); ref Cipolla et al., 2023; cited from earlier work
[4] = BID highest dose (20 mg/kg/day)
[5] = 5 mg/kg BID, curve fit with free min and max

Cn1c(=O)oc2ccc(-c3ccc(C[C@@H](C#N)NC(=O)[C@@H]4CNCCCO4)cc3)cc21 [brensocatib]
Reduction of NE activity vs vehicle (NE; [4]): 85%
Reduction of NE activity vs vehicle (NE; QD highest dose (30 mg/kg/day)): 71%
Change From Vehicle Control (%) NE (NE; oral BID 0.5 mg/kg/day, 16 h post final dose): −20% (p = 0.1494)
Change From Vehicle Control (%) NE (NE; oral BID 2 mg/kg/day, 16 h post final dose): −71% (p < 0.0001)
Change From Vehicle Control (%) NE (NE; oral BID 20 mg/kg/day, 16 h post final dose): −85% (p < 0.0001)
Change From Vehicle Control (%) NE (NE; oral QD 0.75 mg/kg/day, 24 h post final dose): −9% (p = 0.8092)
Change From Vehicle Control (%) NE (NE; oral QD 3 mg/kg/day, 24 h post final dose): −55% (p < 0.0001)
Change From Vehicle Control (%) NE (NE; oral QD 30 mg/kg/day, 24 h post final dose): −71% (p < 0.0001)
Reduction of CatG activity vs vehicle (CatG [1]; [4]): 32%
Reduction of CatG activity vs vehicle (CatG [1]; QD highest dose (30 mg/kg/day)): 41%
Combined BID and QD percent reduction, CatG (CatG [1]; highest dose level 20/30 (BID/QD) mg/kg/day): 37%
Change From Vehicle Control (%) CatG (CatG [1]; oral BID 0.2 mg/kg/day): −14% (p = 0.7146)
Change From Vehicle Control (%) CatG (CatG [1]; oral BID 2 mg/kg/day): −16% (p = 0.6392)
Change From Vehicle Control (%) CatG (CatG [1]; oral BID 20 mg/kg/day): −32% (p = 0.1106)
Change From Vehicle Control (%) CatG (CatG [1]; oral QD 0.3 mg/kg/day): +5% (p = 0.9843)
Change From Vehicle Control (%) CatG (CatG [1]; oral QD 3 mg/kg/day): −35% (p = 0.0605)
Change From Vehicle Control (%) CatG (CatG [1]; oral QD 30 mg/kg/day): −41% (p = 0.0202)
Onset: Maximum reduction (plateau), PR3 (PR3; [5]): 76%
Onset: Time to reach 50% reduction, PR3 (PR3; [5]): 4.5 days
Onset: Time to reach max reduction, PR3 (PR3; [5]): 8.0 days
Percent change from vehicle PR3 (PR3; after 1 day of treatment): −5% (p = 0.9972)
Percent change from vehicle PR3 (PR3; after 4 days of treatment): −43% (p = 0.0236)
Percent change from vehicle PR3 (PR3; after 7 days of treatment): −85% (p < 0.0001)
Percent change from vehicle PR3 (PR3; after 10 days of treatment): −71% (p < 0.0001)
Percent change from vehicle PR3 (PR3; after 14 days of treatment): −81% (p < 0.0001)
Onset: Maximum reduction (plateau), CatG (CatG [2]; [5]): 97%
Onset: Time to reach 50% reduction, CatG (CatG [2]; [5]): 2.8 days
Onset: Time to reach max reduction, CatG (CatG [2]; [5]): 8.1 days
Percent change from vehicle CatG (CatG [2]; after 1 day of treatment): −26% (0.0727)
Percent change from vehicle CatG (CatG [2]; after 4 days of treatment): −81% (p < 0.0001)
Percent change from vehicle CatG (CatG [2]; after 7 days of treatment): −99% (p < 0.0001)
Percent change from vehicle CatG (CatG [2]; after 10 days of treatment): −93% (p < 0.0001)
Percent change from vehicle CatG (CatG [2]; after 14 days of treatment): −99% (p < 0.0001)
sputum CatG activity (CatG [3]): Dose-dependent reductions
